# “And” between values parts separate entries of the source, which are not always exact repeats. Identical values can stand only once. Like-named read-outs stand apart in the source and are kept apart here.
# How the values were obtained:
# [1] = brain exposure after oral administration; type: in vivo, male CD-1 mice; settings: for concentration at 2 hr / concentration at 5 hr: Male CD-1 mice, single PO dose 50 mg/kg (Group 4); for Cmax / Tmax: Brain
# Experimental: Plasma concentrations were measured in mice after oral administration. All doses were formulated in purified water. Four groups of male CD-1 mice were dosed after an overnight fast and fed 4 hours post-dose. Dosing was as follows:
# Protein was precipitated with 0.25 mL acetonitrile for plasma, 0.25 mL for brain. After centrifugation, supernatant was directly injected into an LC/MS system. The limit of quantitation was 1 ng/mL using a 50 μL aliquot for plasma and a 50 μL, aliquot for brain. The standard curve was 1 to 1,000 ng/mL for both plasma and brain. HPLC conditions were as follows:
# HPLC System: Shimadzu SCL-10 System
# • Analytical Column: Aquasil C18 5 μm 100×2 mm column. • Column Temperature: Ambient temperature • Autosampler Temperature: Ambient temperature • Mobile Phase A) 10 mM Ammonium formate in water (pH 4). • B) Acetonitrile. • Flow Rate: 0.6 mL/min • Injection Volume: 2 μL • Gradient:
# • Mass Spectrometry Conditions were as follows: • Instrument: ABI Sciex API 4000 • Mode: ESI+ • Experiment: MRM (multiple reaction monitoring) • Transitions: KX2-391: m/z 432.4→114.2 (Rt=3.11 minute) • KX2-361: m/z 406.1→253.2 (Rt=3.33 minute)
# L3.6pl cells = test: growth inhibition (BrdU), L3.6pl; type: cell-based, human; settings: Homo sapiens, L3.6pl, L3.6pl (Pancreas) cells, single agent
# Text: L3.6pl cells are previously described in Trevino et al. Am J Pathol.
# Caspase-3 cleavage = test: induction of apoptosis via Caspase 3 cleavage; type: cell-based; settings: HT29 and c-Src527F/NIH-3T3 cells
# Experimental: (§1) HT29 (colon cancer) and c-Src527F/NIH-3T3 (Src transformed) cell lines were treated with KX2-391 or with AstraZeneca's ATP competitive Src inhibitor AZ28. AZ28 serves as a positive comparator to show what a validated Src inhibitor should do in these assays. After treatment with compound, cells were lysed, subjected to PAGE and probed with a battery of antibodies. […] In addition, off-target protein phosphorylation was also investigated. Further, induction of apoptosis was evaluated via Caspase 3 cleavage. Multiple doses of each compound were tested because the trends in response to increasing drug concentration are the most reliable indicator of activity.
# (§2) The same range of multiples of the GI50 for AZ28 in these two cell lines was run as a comparison.
# Cleavage of Caspase-3 is a good measure of induction of apoptosis.
# PI3 kinase = test: isolated kinase activity, PI3 kinase; type: biochemical; settings: compound @ 10 μM
# Text: (§3) Table 8 illustrates percent activity of isolated kinases in the presence of the AstraZeneca ATP-competitive inhibitor (KX2-328, AZ-28) or KX2-391 relative to control (untreated) isolated kinases.
# ZAP-70(h) = ZAP-70(h) (Homo sapiens, UniProt P43403); test: isolated kinase activity, ZAP-70; type: biochemical; settings: compound @ 10 μM
# Text: as §3
# [2] = test system: total phosphotyrosine levels; test: total phosphotyrosine levels; type: cell-based; settings: HT29 and c-Src527F/NIH-3T3 cells
# Experimental: as §1, §2
# [3] = male, CD-1, mouse, single oral dose 10 mg/kg
# [4] = male, CD-1, mouse, single oral dose 50 mg/kg
# Chain of ZAP-70(h) (P43403 whole entry): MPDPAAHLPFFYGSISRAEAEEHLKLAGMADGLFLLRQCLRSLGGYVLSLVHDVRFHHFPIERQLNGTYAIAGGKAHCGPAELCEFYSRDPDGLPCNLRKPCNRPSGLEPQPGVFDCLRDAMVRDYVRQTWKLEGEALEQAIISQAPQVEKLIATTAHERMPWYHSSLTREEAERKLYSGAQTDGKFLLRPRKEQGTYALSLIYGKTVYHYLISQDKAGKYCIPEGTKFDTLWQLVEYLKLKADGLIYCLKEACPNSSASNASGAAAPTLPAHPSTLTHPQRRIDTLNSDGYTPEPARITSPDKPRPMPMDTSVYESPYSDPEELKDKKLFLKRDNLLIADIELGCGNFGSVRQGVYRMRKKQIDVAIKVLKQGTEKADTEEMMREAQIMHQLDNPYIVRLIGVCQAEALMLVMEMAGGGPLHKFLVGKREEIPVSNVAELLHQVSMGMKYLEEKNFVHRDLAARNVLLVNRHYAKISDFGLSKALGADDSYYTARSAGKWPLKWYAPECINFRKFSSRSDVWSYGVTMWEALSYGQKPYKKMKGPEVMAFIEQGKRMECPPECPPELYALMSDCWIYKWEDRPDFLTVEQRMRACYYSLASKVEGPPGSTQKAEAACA
compound,measurement,setting,value
O=C(Cc1ccc(-c2ccc(OCCN3CCOCC3)cc2)cn1)NCc1ccccc1 [KX2-391],concentration at 2 hr,"[1]; male, CD-1, mouse, brain, po, 50 mg/kg, 2 hr, Group A, read-out: KX2-391 Brain Concentrations, Group A",414 ng/g
same,concentration at 2 hr,"[1]; male, CD-1, mouse, brain, po, 50 mg/kg, 2 hr, Group B, read-out: KX2-391 Brain Concentrations, Group B",986 ng/g
same,concentration at 2 hr,"[1]; male, CD-1, mouse, brain, po, 50 mg/kg, 2 hr, Group C, read-out: KX2-391 Brain Concentrations, Group C",874 ng/g
same,concentration at 2 hr,"[1]; male, CD-1, mouse, brain, po, 50 mg/kg, 2 hr, Mean, read-out: KX2-391 Brain Concentrations, Mean",758 ng/g
same,concentration at 5 hr,"[1]; male, CD-1, mouse, brain, po, 50 mg/kg, 5 hr, Group A, read-out: KX2-391 Brain Concentrations, Group A",122 ng/g
same,concentration at 5 hr,"[1]; male, CD-1, mouse, brain, po, 50 mg/kg, 5 hr, Group B, read-out: KX2-391 Brain Concentrations, Group B",260 ng/g
same,concentration at 5 hr,"[1]; male, CD-1, mouse, brain, po, 50 mg/kg, 5 hr, Group C, read-out: KX2-391 Brain Concentrations, Group C",239 ng/g
same,concentration at 5 hr,"[1]; male, CD-1, mouse, brain, po, 50 mg/kg, 5 hr, Mean, read-out: KX2-391 Brain Concentrations, Mean",207 ng/g
same,concentration at 0.5 h,"[1]; male, CD-1, mouse, brain, po, 50 mg/kg, single PO dose 50 mg/kg (Group 2), 0.5 hr, read-out: Brain Concentrations, Group A, B, C",2800 ng/g
same,concentration at 0.5 h,"[1]; male, CD-1, mouse, brain, po, 50 mg/kg, single PO dose 50 mg/kg (Group 2), 0.5 hr, read-out: Brain Concentrations, Mean",3690 ng/g
same,concentration at 1 h,"[1]; male, CD-1, mouse, brain, po, 50 mg/kg, single PO dose 50 mg/kg (Group 2), 1 hr, read-out: Brain Concentrations, Group A, B, C",946 ng/g
same,concentration at 1 h,"[1]; male, CD-1, mouse, brain, po, 50 mg/kg, single PO dose 50 mg/kg (Group 2), 1 hr, read-out: Brain Concentrations, Mean",788 ng/g
same,concentration at 2 h,"[1]; male, CD-1, mouse, brain, po, 50 mg/kg, single PO dose 50 mg/kg (Group 2), 2 hr, read-out: Brain Concentrations, Group A, B, C",613 ng/g
same,concentration at 2 h,"[1]; male, CD-1, mouse, brain, po, 50 mg/kg, single PO dose 50 mg/kg (Group 2), 2 hr, read-out: Brain Concentrations, Mean",610 ng/g
same,concentration at 5 h,"[1]; male, CD-1, mouse, brain, po, 50 mg/kg, single PO dose 50 mg/kg (Group 2), 5 hr, read-out: Brain Concentrations, Mean",370 ng/g
same,Cmax,[1]; [3],398 ng/g
same,Tmax,[1]; [3],30 min
same,Cmax,[1]; [4],3690 ng/g
same,Tmax,[1]; [4],30 min
same,"Brain Concentrations, Group A, B, C","[1]; single PO dose 10 mg/kg (Group 1), 0.5 hr, 10 mg/kg",509.00 ng/g and 286.70 ng/g
same,"Brain Concentrations, Group A, B, C","[1]; single PO dose 10 mg/kg (Group 1), 2 hr, 10 mg/kg",84.04 ng/g and 85.88 ng/g
same,"Brain Concentrations, Group A, B, C","[1]; single PO dose 10 mg/kg (Group 1), 5 hr, 10 mg/kg",75.21 ng/g and 71.22 ng/g
same,"Brain Concentrations, Group A, B, C","[1]; single PO dose 50 mg/kg (Group 2), 0.5 hr, 50 mg/kg",3190.42 ng/g and 5089.32 ng/g
same,"Brain Concentrations, Group A, B, C","[1]; single PO dose 50 mg/kg (Group 2), 1 hr, 50 mg/kg",936.29 ng/g and 482.22 ng/g
same,"Brain Concentrations, Group A, B, C","[1]; single PO dose 50 mg/kg (Group 2), 2 hr, 50 mg/kg",530.41 ng/g and 684.97 ng/g
same,GI50,L3.6pl cells,53 nM
same,induction of apoptosis (Caspase-3 cleavage),Caspase-3 cleavage,very effective in inducing apoptosis
same,percent activity of isolated kinase relative to control,PI3 kinase,100%
same,percent activity of isolated kinase relative to control,ZAP-70(h),108%
same,total phosphotyrosine levels,[2],reduction in the total phosphotyrosine levels
